In ChEMBL document CHEMBL3632528 (J Nat Prod, 2015):

Assays:
Liver carboxylesterase 1 = target: T1, Liver carboxylesterase 1 (Homo sapiens, UniProt P23141); test: Inhibition of human carboxylesterase 1 using 2-(2'-benzoyl-3'-methoxylphenyl)-benzothiazole as substrate at 0.1 to 200 uM by fluorescence assay
T1 sequence (P23141 whole entry): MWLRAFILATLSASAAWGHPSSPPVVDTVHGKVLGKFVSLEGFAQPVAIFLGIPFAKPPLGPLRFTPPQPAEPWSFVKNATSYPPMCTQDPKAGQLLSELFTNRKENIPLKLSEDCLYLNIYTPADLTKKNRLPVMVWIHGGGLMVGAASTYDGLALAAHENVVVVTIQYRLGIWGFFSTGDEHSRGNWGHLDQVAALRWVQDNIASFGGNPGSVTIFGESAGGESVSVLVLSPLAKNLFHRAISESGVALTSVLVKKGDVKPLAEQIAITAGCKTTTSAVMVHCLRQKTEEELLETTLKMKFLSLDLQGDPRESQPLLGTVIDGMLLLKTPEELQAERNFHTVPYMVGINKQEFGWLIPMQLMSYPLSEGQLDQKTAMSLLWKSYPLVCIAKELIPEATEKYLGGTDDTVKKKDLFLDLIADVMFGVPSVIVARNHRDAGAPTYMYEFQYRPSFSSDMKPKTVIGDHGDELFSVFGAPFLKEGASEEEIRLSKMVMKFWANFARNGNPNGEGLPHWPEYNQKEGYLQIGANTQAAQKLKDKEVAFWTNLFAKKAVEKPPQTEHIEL

Cocaine esterase [1] = target: T2, Cocaine esterase (Homo sapiens, UniProt O00748); test: Inhibition of human carboxylesterase 2 using 4-benzoyl-N-butyl-1,8-naphthalimide as substrate by fluorescence assay
T2 sequence (O00748 whole entry): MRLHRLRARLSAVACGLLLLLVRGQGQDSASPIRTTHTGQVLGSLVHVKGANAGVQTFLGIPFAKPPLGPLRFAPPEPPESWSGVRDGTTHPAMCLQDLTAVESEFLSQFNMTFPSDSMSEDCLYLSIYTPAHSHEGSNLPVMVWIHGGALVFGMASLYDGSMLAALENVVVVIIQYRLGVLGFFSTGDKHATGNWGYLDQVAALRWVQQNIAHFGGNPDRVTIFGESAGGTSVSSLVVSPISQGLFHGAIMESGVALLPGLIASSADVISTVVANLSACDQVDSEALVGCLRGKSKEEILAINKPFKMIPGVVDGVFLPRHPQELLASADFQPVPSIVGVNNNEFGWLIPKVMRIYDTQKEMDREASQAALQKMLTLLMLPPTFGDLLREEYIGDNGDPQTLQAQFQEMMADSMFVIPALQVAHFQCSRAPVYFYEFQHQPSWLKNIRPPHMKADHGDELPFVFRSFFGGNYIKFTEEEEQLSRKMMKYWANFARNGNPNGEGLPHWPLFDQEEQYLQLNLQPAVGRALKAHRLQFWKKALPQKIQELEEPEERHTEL

Cocaine esterase [2] = target: T2, Cocaine esterase; test: […] inhibition of human carboxylesterase 2 using 4-benzoyl-N-butyl-1,8-naphthalimide as substrate by Dixon and Lineweaver-Burk plot analysis

Structure (SMILES)	inhibition (INH) (Liver carboxylesterase 1)	IC50 (Cocaine esterase [1])	Ki (Cocaine esterase [2])
C=C(C)[C@@H](O)[C@@H](O)C[C@@H](C)C1=C2C=C[C@H]3[C@@]4(C)CCC(=O)C(C)(C)[C@@H]4CC[C@]3(C)[C@@]2(C)CC1=O	Not Active	8.68 µM	
CC(=O)C1=C2C=C[C@H]3[C@@]4(C)CCC(=O)C(C)(C)[C@@H]4CC[C@]3(C)[C@@]2(C)CC1=O	Not Active		
C[C@H](C[C@H](O)[C@@H](O)C(C)(C)O)C1=C2CC[C@H]3[C@@]4(C)CCC(=O)C(C)(C)[C@@H]4CC[C@]3(C)[C@@]2(C)CC1	Not Active	4.63 µM	
C=C(C)[C@@H](O)[C@@H](O)C[C@@H](C)C1=C2CC[C@H]3[C@@]4(C)CCC(=O)C(C)(C)[C@@H]4CC[C@]3(C)[C@@]2(C)CC1	Not Active		
CC1=CC(=O)C[C@@]2(C)[C@H]1CC[C@@]1(C)[C@H]2[C@@H](O)CC2=C([C@H](C)C[C@H](O)[C@@H](O)C(C)(C)O)CC[C@@]21C	Not Active	2.02 µM	1.76 µM
CC(=O)O[C@@H](C[C@@H](C)C1=C2C=C[C@H]3[C@@]4(C)CCC(=O)C(C)(C)[C@@H]4CC[C@]3(C)[C@@]2(C)CC1=O)[C@H](O)C(C)(C)O	Not Active		
CCOC(C)(C)[C@H](O)[C@@H](O)C[C@@H](C)C1=C2C[C@H](O)[C@H]3[C@@]4(C)CCC(=O)C(C)(C)[C@@H]4CC[C@]3(C)[C@@]2(C)CC1	Not Active	4.72 µM	
C[C@H](CC[C@H](O)C(C)(C)O)[C@H]1CC[C@@]2(C)C1=CC=C1[C@]2(C)CC[C@H]2C(C)(C)C(=O)CC[C@]12C	Not Active	4.58 µM	
C[C@@H]1C[C@@H]([C@@H](O)C(C)(C)O)O[C@H]2C[C@@]3(C)C(=C12)C=C[C@H]1[C@@]2(C)CCC(=O)C(C)(C)[C@@H]2CC[C@@]13C	Not Active		
CC1(C)O[C@@H]1[C@@H](O)C[C@](C)(O)C1=C2C[C@H](O)[C@H]3[C@@]4(C)CCC(=O)C(C)(C)[C@@H]4CC[C@]3(C)[C@@]2(C)CC1=O	Not Active		
C[C@H](CC(=O)[C@H](O)C(C)(C)O)C1=C2C=C[C@H]3[C@@]4(C)CCC(=O)C(C)(C)[C@@H]4CC[C@]3(C)[C@@]2(C)CC1=O	Not Active		
CC(=O)O[C@H]([C@@H]1C[C@@H](C)C2=C3C=C[C@H]4[C@@]5(C)CCC(=O)C(C)(C)[C@@H]5CC[C@]4(C)[C@@]3(C)C[C@@H]2O1)C(C)(C)O	Not Active	24.3 µM	
C[C@H](C[C@H](O)[C@H](O)C(C)(C)O)C1=C2C=C[C@H]3[C@@]4(C)CCC(=O)C(C)(C)[C@@H]4CC(=O)[C@]3(C)[C@@]2(C)CC1=O	Not Active		
C[C@H](C[C@H](O)[C@@H](O)C(C)(C)O)C1=C2C[C@H](O)[C@H]3[C@@]4(C)CCC(=O)C(C)(C)[C@@H]4CC[C@]3(C)[C@@]2(C)CC1 [ALISOL A]	Not Active		
CC(=O)O[C@H]1C[C@@H](C)C2=C3C[C@H](O)[C@H]4[C@@]5(C)CCC(=O)C(C)(C)[C@@H]5CC[C@]4(C)[C@@]3(C)C[C@@H]2O[C@@H]1C(C)(C)O	Not Active		
CC(=O)O[C@@H]([C@@H](O)C[C@@H](C)C1=C2C[C@H](O)[C@H]3[C@@]4(C)CCC(=O)C(C)(C)[C@@H]4CC[C@]3(C)[C@@]2(C)CC1)C(C)(C)O	Not Active		
C[C@@H]1CC(=O)[C@@H](C(C)(C)O)O[C@H]2C[C@@]3(C)C(=C12)C=C[C@H]1[C@@]2(C)CCC(=O)C(C)(C)[C@@H]2CC[C@@]13C	Not Active		
C=C(C)[C@H](O)[C@@H]1C[C@@H](C)C2=C3C[C@H](O)[C@H]4[C@@]5(C)CCC(=O)C(C)(C)[C@@H]5CC[C@]4(C)[C@@]3(C)C[C@@H]2O1	Not Active		
C[C@H](C[C@H](O)[C@@H](O)C(C)(C)O)C1=C2C[C@H](O)[C@H]3[C@@]4(C)CCC(=O)C(C)(C)[C@@H]4CC[C@]3(C)[C@@]2(C)C=C1	Not Active		
C[C@H](C[C@H](O)[C@@H](O)C(C)(C)O)C1=C2C[C@@H]3OC(=O)C[C@@]4(C)[C@H](C(C)(C)C(=O)O)CC[C@@](C)([C@@H]34)[C@@]2(C)CC1	Not Active	20.9 µM	
C[C@H](C[C@H](O)[C@H](O)C(C)(C)O)C1=C2C=C[C@H]3[C@@]4(C)CCC(=O)C(C)(C)[C@@H]4CC[C@]3(C)[C@@]2(C)CC1=O	Not Active		
